# In patent EP1207391A1, “METHOD FOR SCREENING TARGETING DDS PREPARATION” (Ajinomoto Co., Inc., priority 1999, dated 2001):
# pKd, pKi: −log10 of the molar value. Where “and” joins values, the source holds several entries; their conditions need not be identical. Equal values may be shown once. Read-outs that look alike come from different tables or passages of the source.
# Experiments:
# [1] = target: T1, asialoglycoprotein receptor (Mus musculus, UniProt P24721+P34927); experiment: Screening of ligand (1): bound 125I-ASOR after incubation of hepatocytes with unlabeled ligand (Example 17); type: cell-based; settings: bound counts of 125I-ASOR after 10 minutes at 37°C with ligand at 100 - 2000 times of Kd; mean of 3
# T1 construct: Mouse primary cultured hepatocytes, which were cultured for overnight on the 12 well plate, isolated by collagenase perfusion; endogenous in cells; host or cells: mouse (C57BL/6) primary hepatocytes cultured overnight on 12-well plates
# T1 sequence (P34927 1-284): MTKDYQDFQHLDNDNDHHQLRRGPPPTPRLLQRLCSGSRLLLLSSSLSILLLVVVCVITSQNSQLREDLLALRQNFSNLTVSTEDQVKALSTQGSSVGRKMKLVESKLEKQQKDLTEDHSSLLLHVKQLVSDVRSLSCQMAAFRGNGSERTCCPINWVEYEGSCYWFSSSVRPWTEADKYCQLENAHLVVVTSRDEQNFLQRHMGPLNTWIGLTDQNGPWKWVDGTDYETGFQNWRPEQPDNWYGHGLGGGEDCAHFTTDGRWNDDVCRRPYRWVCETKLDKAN
# T1 sequence (P24721 1-301): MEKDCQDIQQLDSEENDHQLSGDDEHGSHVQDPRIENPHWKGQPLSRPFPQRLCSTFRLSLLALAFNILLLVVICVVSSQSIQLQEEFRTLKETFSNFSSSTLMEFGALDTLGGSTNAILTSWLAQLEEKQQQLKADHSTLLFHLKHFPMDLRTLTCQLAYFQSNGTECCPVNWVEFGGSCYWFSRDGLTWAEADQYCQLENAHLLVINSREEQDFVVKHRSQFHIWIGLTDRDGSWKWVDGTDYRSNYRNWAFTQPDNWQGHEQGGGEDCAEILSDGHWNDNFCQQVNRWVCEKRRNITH
# Description: A method for screening ligand having high ability to avoid the internalization without radio labeling each ligand and without calculation of kint and koff, was performed as follows.
# Concretely, mouse primary cultured hepatocytes, which were isolated by a method of Berry et al. collagenase perfusion method shown in example and cultured overnight on 12 well plate, was washed twice with D-MEM (pH 7.4) (each 2 ml) containing D-PBS, 0.1% BSA and 20 mM Hepes. The same D-MEM medium (1 ml) was added thereto and preincubated at 37°C for 60 minutes. Cooled D-PBS (pH 5.0) containing 10 mM EDTA was added to the cells, allowed to stand under ice cooling for 4 minutes and washed twice with cooled D-PBS (2 ml). […] After 10 minutes, the plate was placed on the ice bath, added the cooled D-PBS (pH 5.0) containing 10 mM EDTA, allowed to stand under ice cooling for 4 minutes, and washed 4 times with cooled D-PBS (1 ml). D-MEM solution (0.4 ml) of 0.6 nM ^125I-ASOR was added to the cells in each well on the ice bath, and allowed to stand at 4°C for 60 minutes. On the ice bath, they were washed 4 times with cooled D-PBS (1 ml), allowed to stand at -80°C for more than 30 minutes, added 0.1 N sodium hydroxide (0.5 ml), and incubated at 37°C formore than 1 hour. Amount of receptor remained on the surface (ligand bound or free) other than the internalization by endocytosis was calculated by measuring the cell lysis with ã-counter (mean of 3 repeats).
# [2] = target: T1, asialoglycoprotein receptor; experiment: Screening of ligand (2): kint and koff without labeling the ligand (Example 18); type: cell-based; settings: for kint: 37°C for 10 minutes, 125I-ASOR read-out
# Description: A method for screening ligand having high ability to avoid the internalization without radio labeling each ligand to obtain kint and koff and to calculate simply the ability to avoid the internalization (= kint / koff) was performed as follows. […] Concretely, mouse primary cultured hepatocytes, which were isolated by the method of Berry et al. collagenase perfusion method shown in example and cultured overnight on 12 well plate, was washed twice with D-MEM (pH 7.4) (each 2 ml) containing D-PBS, 0.1% BSA and 20 mM Hepes. The same D-MEM medium (1 ml) was added thereto and preincubated at 37°C for 60 minutes. Cooled D-PBS (pH 5.0) containing 10 mM EDTA was added to the cells, allowed to stand under ice cooling for 4 minutes and washed twice with cooled D-PBS (2 ml). Using the thus prepared plate, experiments for calculating kint and koff were performed. […] Separately, the system without addition of the ligand was incubated for 0 minute and for 10 minutes at 37°C. After the necessary time has passed, immediately the plate was placed on the ice bath, added the cooled D-PBS (pH 5.0) containing 10 mM EDTA, allowed to stand under ice cooling for 4 minutes, and washed 4 times with cooled D-PBS (1 ml). D-MEM solution (0.4 ml) of 0.6 nM ^125I-ASOR was added to the cells in each well on the ice bath, and allowed to stand at 4°C for 60 minutes. […] Amount of receptor remained on the surface (ligand bound or free) other than the integration by endocytosis was calculated by measuring the cell lysis with ã-counter (mean of 3 repeats). The obtained amount of ratio activity was all divided by the concentration of the added solution (cpm/μl) to convert the distribution volume (μl/well). […] Separately, with regard to the system without ligand, only the said D-MEM medium is added 0.4 ml and incubated. […] The cell lytic solution was measured using γ-counter to calculate amount of the dissociated cold ligand once bound with the receptor. The amount of obtained radio activity is all divided by the concentration of the added solution (cpm/μl) and converted to the distribution volume (μl/well). With regards to the ligand non-added system and the ligand added system, the binding rate for 15 minutes is calculated by subtracting the distribution volume in the incubation for 5 minutes from the distribution volume in the incubation for 20 minutes. The binding rate without addition of the ligand is set as 100 and the binding rate of each ligand is converted into the percentage to the control (% of control).
# [3] = target: T1, asialoglycoprotein receptor; experiment: Binding inhibition experiment 2 of 125I-ASOR on mouse primary cultured hepatocytes (Example 9); settings: read-out: Ki value, 0.6 nM 125I-ASOR, 4°C for 60 minutes
# Description: In the binding inhibition experiment according to the method of Biessen, et al. performed in example 8, a concentration of added ^125I-ASOR was 22 nM. Kd value of ASOR is approximately several nM and the concentration of added ASOR is higher that the actual Kd value, consequently, in the experiment in example 8, the binding inhibition by each ligand is difficult to generate and the Kd value is estimated too high. In order to evaluate newly synthesized ligand[(Gal)3(6) and (Gal)2(9)], calculation of more exact Ki value is necessary.
# Mouse primary cultured hepatocytes, which were cultured for overnight on the 12 well plate, isolated by collagenase perfusion described in examples of Berry, et al., were washed twice with D-MEM (pH 7.4) (each 2 ml) containing D-PBS, 0.1% BSA and 20 mM Hepes, added said D-MEM medium (1 ml), and preincubated at 37°C for 60 minutes. The cooled D-PBS (pH 5.0) containing 10 mM EDTA was added to the cells, allowed to stand under ice-cooling for 4 minutes, and washed twice with cooled D-PBS (2 ml). […] The cells were washed, on the ice bath, 4 times with cooled D-PBS (1 ml), allowed to leave at -80°C for more than 30 minutes, added 0.1 N aqueous sodium hydroxide (0.5 ml), incubated at 37°C for more than 1 hour, and measured the cell lytic solution by using γ-counter to calculate amount of bound ^125I-ASOR on the surface of cells. […]
# [4] = target: T2, asialoglycoprotein receptor (ASGP-R) (Mus musculus, UniProt P24721+P34927); experiment: Binding inhibition experiment of 125I-ASOR to mouse liver cells (Example 8, method of Biessen et al.); settings: for pKi: 4°C
# T2 construct: The liver parenchymal cells (in 4 ml Falcon tube, 0.6 - 1.0 × 10^6/0.5 ml in ice bath); endogenous in cells; host or cells: freshly isolated mouse liver parenchymal cells (C57BL/6) in suspension
# T2 sequence (P34927 1-284): T1 sequence (P34927 1-284)
# T2 sequence (P24721 1-301): T1 sequence (P24721 1-301)
# Description: Among these ligands, we have first examined two types of ligands for asialoglycoprotein receptor on hepatocytes, i.e. the three-branched galactose ligand [(Gal)3] of the following formula: [drawing 5] and the three-branched N-acetylgalactosamine ligand [(GalNAc)3] of the following formula: [drawing 6] and their binding forms to IL-2. At first, the Kd value, which is an index of the binding affinity to ASGP-R, was calculated. Table 1,
# Binding inhibition experiments of ASOR to mouse liver cells using each ligand were performed according to a method of Biessen, et al. [Biessen, E.A.L. et al., J. Biol. Chem., 271(45): 28024-28030 (1996)].
# The liver parenchymal cells (in 4 ml Falcon tube, 0.6 - 1.0 × 10^6/0.5 ml in ice bath) was added to D-PBS containing 2% BSA. Inhibitor 0.25 ml prepared for various concentration with D-PBS containing 2% BSA was added thereto. ^125I-ASOR 0.25 ml (22 nM) in D-PBS containing 2% BSA was added therein and stirred gently at 4°C for 2 hours.
# The mixture was centrifuged at 50G for 1 minute, discarded the supernatant solution, added D-PBS containing 2% BSA and stirred, then again centrifuged at 50G for 1 minute, and discarded the supernatant medium. This procedure was repeated again and the medium was measured by γ-counter.
# Thereafter, 0.1 N NaOH containing 10% SDS 1 ml was added thereto, and the protein concentration was measured by Lowry method using the protein assay kit (Biorad Inc.).
# As a result, depending on the increase in the added concentration of (GalNAc)3 and (Gal)3, […] was dissociated with almost monophasic manner. Data of dissociation obtained by three repeated experiments were analyzed using non-linear single site model to calculate the binding inhibition constant (Ki).
# Large differences were observed between two types of the ligand.
"koff ([2]; unlabeled ligand, 4°C, 125I-ASOR binding rate for 15 minutes, read-out: koff (converted))",SMILES,Bound [1],kint ([2]; unlabeled ligand),pKi [3],koff [2],affinity relative to (GalNAc)3 ([4]; ratio of affinities from Kd values),"pKi ([4]; read-out: Binding inhibitory constant (Ki) Ave., average of three repeated experiments, 125I-ASOR 22 nM)","pKi ([4]; read-out: Binding inhibitory constant (Ki), individual experiments 1-3, binding of 125I-ASOR (22 nM) to mouse hepatocytes)","pKd ([4]; read-out: Kd value, calculated from the Ki of Table 1)"
0.000395 s⁻¹,"NCCCCCC(=O)N[C@@H](CCC(=O)NCCOCCOCCO[C@@H]1O[C@H](CO)[C@H](O)[C@H](O)[C@H]1O)C(=O)NCCOCCOCCO[C@@H]1O[C@H](CO)[C@H](O)[C@H](O)[C@H]1O (atropisomer, axis not shown) [(Gal)2(9)]",1670 cpm,0.0605 min⁻¹,,,,,,
,"NCCCCCC(=O)NC(CCC(=O)NCCOCCOCCO[C@@H]1O[C@H](CO)[C@H](O)[C@H](O)[C@H]1O)C(=O)NC(CCC(=O)NCCOCCOCCO[C@@H]1O[C@H](CO)[C@H](O)[C@H](O)[C@H]1O)C(=O)NCCOCCOCCO[C@@H]1O[C@H](CO)[C@H](O)[C@H](O)[C@H]1O (stereo partly drawn) [(Gal)3, three-branched galactose ligand]",1784 cpm,0.054 min⁻¹,6.80,0.000943 s⁻¹,approximately 1/200,3.46 and 3.45,3.17 and 3.45 and 3.53,3.45
,NCCCCCC(=O)NC(CCC(=O)NCCOCCO[C@@H]1O[C@H](CO)[C@H](O)[C@H](O)[C@H]1O)C(=O)NC(CCC(=O)NCCOCCO[C@@H]1O[C@H](CO)[C@H](O)[C@H](O)[C@H]1O)C(=O)NCCOCCO[C@@H]1O[C@H](CO)[C@H](O)[C@H](O)[C@H]1O (stereo partly drawn) [(Gal)3(6)],2015 cpm,0.0417 min⁻¹,6.43,0.00113 s⁻¹,,,,
